For 17 compounds, TGI and GI50 results are on record in PubChem BioAssay (NCI).

Where “and” joins values, the source holds several entries; their conditions need not be identical. Equal entries are not always repeated.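 Five compound concentrations were applied to cells in 96-well plates for 48 hours; endpoints were derived by simple linear interpolation of the resulting dose-response curve. GI50: concentration for 50% inhibition of growth. TGI: concentration producing complete growth inhibition.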

Some test systems named below: DLD-1 colon; SK-MEL-5 melanoma; HOP-18 NSCLC; OVCAR-4 ovarian; DMS 114 small cell lung; SNB-19 CNS; KM20L2 colon; BT-549 breast; HS 578T breast; NCI/ADR-RES ovarian.
Assay in all cases: inhibition of tumour cell growth, NCI panel, 48 h

Regarding `O=C(O)c1cc(Cl)cc(NC(=O)C(Cl)Cl)c1Cl`, the TGI in the assay with DLD-1 colon, in the assay with SK-MEL-5 melanoma, in the assay with HOP-18 NSCLC, with OVCAR-4 ovarian, in the assay with DMS 114 small cell lung and in the assay on SNB-19 CNS was over 100 µM in each case. In the assay on KM20L2 colon, this compound displayed a TGI of over 100 µM.

`c1ccc2c(c1)CCCc1cc3ccccc3nc1-2`: the TGI in the assay with DLD-1 colon was over 100 µM; in the assay with SK-MEL-5 melanoma, over 100 µM; with HOP-18 NSCLC it was over 100 µM; in the assay on OVCAR-4 ovarian it was over 100 µM; in the assay with DMS 114 small cell lung it was 75.1 µM; in the assay with SNB-19 CNS, over 100 µM. Also, in the assay with KM20L2 colon, the TGI was over 100 µM.

For `O=C(CCCCCCCCCCc1ccccc1)c1c(O)cccc1O`, the TGI in the assay on DLD-1 colon amounted to 39.7 µM; in the assay with SK-MEL-5 melanoma, 30.4 µM; with HOP-18 NSCLC, 67.5 µM; in the assay on OVCAR-4 ovarian it was 57.5 µM; with DMS 114 small cell lung, 45.3 µM; in the assay with SNB-19 CNS, 41.3 µM. The compound further displayed a TGI in the assay on KM20L2 colon of over 100 µM.

In the case of `Cc1cc(N(CCC#N)S(=O)(=O)c2ccccc2)ccc1C=O`, the TGI in the assay on DLD-1 colon, in the assay with SK-MEL-5 melanoma, with HOP-18 NSCLC, in the assay on OVCAR-4 ovarian, in the assay on DMS 114 small cell lung and in the assay with SNB-19 CNS was over 100 µM throughout. The TGI in the assay with KM20L2 colon was over 100 µM.

Consider `Brc1ccc2c(c1)C1(c3cc(Br)ccc3-2)c2cc(Br)ccc2-c2ccc(Br)cc21`, for which the TGI in the assay with DLD-1 colon, with HOP-18 NSCLC, with OVCAR-4 ovarian, with DMS 114 small cell lung, with SNB-19 CNS and in the assay on KM20L2 colon was over 100 µM in each case.

Consider `CC1=CC2=C(C)C3(CC3)[C@@](C)(O)C(=O)C2=C1`, for which the TGI in the assay on DLD-1 colon is over 0.935 µM; with SK-MEL-5 melanoma, 0.294 µM; in the assay with HOP-18 NSCLC, 0.528 µM; in the assay on OVCAR-4 ovarian it was 0.356 µM; in the assay with DMS 114 small cell lung, 0.313 µM; with SNB-19 CNS it was 0.545 µM. The compound also displayed a TGI in the assay with KM20L2 colon of 0.498 µM.

Consider `COc1cc2c3c(c1OC)-c1ccccc1C(C(OC(C)=O)c1ccccc1)C3N(C)CC2` (stereo not given), for which the TGI with DLD-1 colon was 91 µM; in the assay with SK-MEL-5 melanoma, 49.6 µM; in the assay on HOP-18 NSCLC, over 100 µM; in the assay on OVCAR-4 ovarian, over 100 µM; in the assay on DMS 114 small cell lung, over 100 µM; in the assay with SNB-19 CNS, over 100 µM. Further, the TGI with KM20L2 colon was over 100 µM.

On to `COC(=O)C(CC=O)C(=O)C(=O)Nc1cccc(C(F)(F)F)c1` (stereo not given), for which the TGI in the assay on DLD-1 colon, with SK-MEL-5 melanoma, in the assay with HOP-18 NSCLC, in the assay on OVCAR-4 ovarian, in the assay with DMS 114 small cell lung and in the assay with SNB-19 CNS was over 100 µM in each case. The compound also displayed a TGI with KM20L2 colon of over 100 µM.

Regarding `Oc1cc2cc(-c3ccccc3)[nH]c2c2ccccc12`, the TGI with DLD-1 colon is over 100 µM; in the assay on SK-MEL-5 melanoma, 27.2 µM; in the assay with HOP-18 NSCLC, over 96 µM; in the assay on OVCAR-4 ovarian, over 100 µM; with DMS 114 small cell lung, 27.7 µM; in the assay with SNB-19 CNS, over 70.2 µM. The TGI in the assay with KM20L2 colon was over 100 µM.

As for `COc1ccc([Se]c2ccc(OC)cc2OC)c(OC)c1`, the TGI in the assay on DLD-1 colon is over 100 µM; with SK-MEL-5 melanoma, 93.4 µM; with HOP-18 NSCLC, 86 µM; in the assay on OVCAR-4 ovarian, over 100 µM; in the assay on DMS 114 small cell lung, 13 µM; with SNB-19 CNS, over 100 µM. This compound also displayed a TGI in the assay with KM20L2 colon of 31.6 µM.

Consider `O=c1c2ccccc2nc(-c2ccccc2)n1NCC1(O)OCC(O)C(O)C1O` (stereo not given), for which the TGI with DLD-1 colon, with SK-MEL-5 melanoma, with HOP-18 NSCLC, in the assay on OVCAR-4 ovarian, in the assay on DMS 114 small cell lung and in the assay with SNB-19 CNS was over 100 µM throughout. The compound also displayed a TGI in the assay on KM20L2 colon of over 100 µM.

As for `CC(=O)NC1C(OCc2ccccc2)OC(COC(=O)CCCCCCCCCCNC(=O)c2cccc3c(=O)c4ccccc4[nH]c23)C(O)C1OC(C)C(=O)NC(C)C(=O)NC(CCC(N)=O)C(N)=O` (stereo not given), the TGI in the assay on DLD-1 colon, in the assay with SK-MEL-5 melanoma, with HOP-18 NSCLC, in the assay on OVCAR-4 ovarian, in the assay with DMS 114 small cell lung and in the assay with SNB-19 CNS was over 100 µM in each case. This compound yielded a TGI in the assay with KM20L2 colon of over 100 µM.

As to `O=C(CCCCCCCCC(=O)OCC1OC(n2cnc3c(=O)[nH]cnc32)C(O)C1O)OCC1OC(n2cnc3c(=O)[nH]cnc32)C(O)C1O` (stereo not given), the TGI with DLD-1 colon, in the assay on SK-MEL-5 melanoma, in the assay on HOP-18 NSCLC, with OVCAR-4 ovarian, in the assay on DMS 114 small cell lung and in the assay with SNB-19 CNS was over 100 µM in each case. For the same compound, the TGI in the assay with KM20L2 colon is over 100 µM.

In the case of `O=C1c2c(O)cccc2C(C(=O)CCCCC(=O)C2c3cccc(O)c3C(=O)c3c(O)cccc32)c2cccc(O)c21`, the GI50 in the assay with DLD-1 colon was 1.68 µM; in the assay with SK-MEL-5 melanoma, 1.09 µM; in the assay on HOP-18 NSCLC, 0.996 µM; in the assay with OVCAR-4 ovarian it was 1.21 µM; in the assay with DMS 114 small cell lung it was 1.01 µM; in the assay on SNB-19 CNS, 0.529 µM. Further, the GI50 in the assay with KM20L2 colon was 1.58 µM. Moreover, the TGI in the assay with DLD-1 colon is 4.52 µM and 9.27 µM; in the assay with BT-549 breast, 1.96 µM; with SK-MEL-5 melanoma it was 0.921 µM and 2.04 µM; in the assay with HOP-18 NSCLC, 1.79 µM and 1.88 µM; with OVCAR-4 ovarian it was 1.74 µM and 2.31 µM; with DMS 114 small cell lung, 1.48 µM and 1.83 µM. For the same compound, the TGI with HS 578T breast was 0.951 µM; in the assay with SNB-19 CNS, 1.35 µM and 1.89 µM; in the assay with KM20L2 colon it was 4.39 µM and 5.46 µM.

As to `CC(C)c1ccc(/C=C(\NC(=O)c2ccccc2)c2nc3ccccc3[nH]2)cc1`, the TGI was over 100 µM in the assay with DLD-1 colon; 48.7 µM in the assay on SK-MEL-5 melanoma; over 100 µM in the assay on HOP-18 NSCLC; over 100 µM with OVCAR-4 ovarian; 92.8 µM in the assay on DMS 114 small cell lung; over 100 µM with SNB-19 CNS. The TGI with KM20L2 colon is over 100 µM.

In the case of `COc1ccc(S(=O)(=O)N/N=C/C(=O)O)cc1`, the TGI in the assay on DLD-1 colon was over 1250 µM; with BT-549 breast, 704 µM; with SK-MEL-5 melanoma it was 894 µM; with HOP-18 NSCLC, over 1250 µM; in the assay on OVCAR-4 ovarian it was over 1210 µM; in the assay with DMS 114 small cell lung, 1230 µM. Besides, the TGI in the assay with NCI/ADR-RES ovarian is 1030 µM; in the assay with HS 578T breast, 1040 µM; with SNB-19 CNS, over 1250 µM; in the assay on KM20L2 colon it was over 1250 µM.

For the compound `C/C(=N\NS(=O)(=O)c1ccc(C)cc1)c1ccc[n+]([O-])n1`, the TGI with DLD-1 colon, in the assay with SK-MEL-5 melanoma, in the assay on HOP-18 NSCLC, with OVCAR-4 ovarian, in the assay with DMS 114 small cell lung and in the assay on SNB-19 CNS was over 100 µM each time. Moreover, in the assay with KM20L2 colon, the TGI is over 100 µM.
